Measured values: PubChem BioAssay AID1869 (NMMLSC, 2009)
pEC50, pKi: −log10 of the molar value. The source made the active and inactive calls. The rule behind the calls is not given here.

Biological target: Regulator of G-protein signaling 8 (Homo sapiens) (UniProt P57771)
Assay: RGS8-Galphao interaction modulators, dose response, biochemical, multiplex bead flow cytometry (AID 1869)
Settings: bead-based flow cytometry RGS8-Galphao binding; for pKi: measured here: Ki for RGS8-Galphao binding

Regulator of G-protein signaling 8 (Homo sapiens), sequence (P57771 whole entry, looked up): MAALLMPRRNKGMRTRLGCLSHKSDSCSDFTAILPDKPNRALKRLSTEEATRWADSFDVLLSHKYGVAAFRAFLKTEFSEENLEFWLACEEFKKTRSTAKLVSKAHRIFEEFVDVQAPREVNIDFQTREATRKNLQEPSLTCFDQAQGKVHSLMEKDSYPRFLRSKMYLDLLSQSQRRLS

O=C(COc1ccccc1C(=O)N/N=C\c1ccc(O)c(O)c1)N/N=C/c1ccc(O)c(O)c1
pKi: 5.60

CCOC(=O)C1=C(C)NC(C)=C(C(=O)OCCNC(=O)c2cccnc2)C1c1cccc([N+](=O)[O-])c1 (stereo not drawn)
EC50: > 30 µM (inactive)

CCOC(=O)C1CCCN(C(=O)Cn2sc3nc(C)cc(C)c3c2=O)C1 (stereo not drawn)
pKi: 5.35

NS(=O)(=O)c1ccc(N/N=C/c2ccc(O)c(O)c2O)c([N+](=O)[O-])c1
pEC50: 5.77 | pKi: 5.85

O=c1[nH]c(=S)n(Cc2ccco2)c(O)c1C=NCc1cccs1
EC50: > 30 µM (inactive)

O=C(O[C@@H]1OC2COC(=O)c3cc(O)c(O)c(O)c3-c3c(cc(O)c(O)c3O)C(=O)O[C@@H]([C@H]1O)[C@@H]2O)c1cc(O)c(O)c(O)c1
pKi: 5.84

O=C1C(Cl)=C(N2CCCCC2)C(=O)C(Cl)=C1c1cnc(N2CCCCC2)s1
pKi: 6.02

CCN=c1scc(C)n1/N=C/c1ccc(O)c(O)c1O
pKi: 4.71

COC(=O)CCC(=O)Nc1sc(C)c(C)c1C(N)=O
pKi: 5.31

CC(C)Sc1nc2ccc(N3C(=O)C4CCCCC4C3=O)cc2s1 (stereo not drawn)
EC50: > 30 µM (inactive)

CCc1c(C(=O)Nc2ccccc2)c(C)[nH]c(=S)c1C#N
pKi: 5.10

CN(C)c1ncc(C2=C(Cl)C(=O)C(N3CCCC3)=C(Cl)C2=O)s1
pKi: 5.95

Nc1cccnc1Sc1ccc([N+](=O)[O-])cn1
pKi: 4.86

COc1ccc(Br)cc1/C=N/Nc1cccc(C(=O)O)c1
EC50: > 30 µM (inactive)

O=c1c2ccccc2sn1-c1cc(S(=O)(=O)N2CCOCC2)ccc1N1CCOCC1
pKi: 5.38

Cc1ccc(-n2sc3ccccc3c2=O)cc1S(=O)(=O)N1CCCCC1
pKi: 5.00

CCOC(=O)/C(C(=O)Nc1ccccc1Cl)=C1/NC(C)(C)Cc2ccccc21
EC50: > 30 µM (inactive)

Nc1c(C(=O)NCC2CCCO2)sc2nc3c(c(-c4ccco4)c12)CC/C3=C\c1ccco1 (stereo not drawn)
pKi: 5.22

Cc1cc(Cl)ccc1N=c1ssnc1Cl
pKi: 4.93

Cc1cc(C)c2c(=O)n(CC(=O)Nc3cccc(F)c3)sc2n1
pKi: 5.19

CCN(CC)S(=O)(=O)c1cccc(C(=O)N/N=C/c2ccc(O)c(O)c2O)c1
pKi: 5.42

O=[N+]([O-])c1ccc(Sc2cccc[n+]2[O-])c2nonc12
pKi: 5.60

CCC(=O)NC(c1ccc(C)cc1)c1cc([N+](=O)[O-])c2cccnc2c1O (stereo not drawn)
pKi: 4.86

CN(C)S(=O)(=O)c1cccc(-n2sc3ccccc3c2=O)c1
pKi: 5.48

Cc1[nH]n(-c2ccccc2)c(=S)c1C=Nc1cccc([N+](=O)[O-])c1
pKi: 5.78

CCOC(=O)N=Nc1c(O)n(C)c2ccccc12
EC50: > 30 µM (inactive)

O=c1c2ccccc2sn1-c1ccccc1
pKi: 5.30

O=c1c2ccccc2sn1-c1ccc(S(=O)(=O)N2CCCC2)cc1
pKi: 5.06

Cc1[nH]n(-c2ccccc2)c(=S)c1C=NCCCN=Cc1c(C)[nH]n(-c2ccccc2)c1=S
pKi: 5.37

O=C1CCC(=O)N(O)CCCCCNC(=O)CCC(=O)N(O)CCCCCNC(=O)CCC(=O)N(O)CCCCCN1
pKi: 5.77

CN1CCN(C2=C(Cl)C(=O)C(c3cnc(N4CCCCC4)s3)=C(Cl)C2=O)CC1
pKi: 6.96

COc1ccc(C2=CC(=O)C=CC2=O)cc1
pKi: 5.22

CCN1/C(=C/C(C)=C/c2sc3ccccc3[n+]2CC)Sc2ccccc21
pKi: 5.13

CCC(=O)NC1=C(Cl)C(=O)C(NC(=O)CC)=C(Cl)C1=O
pKi: 5.55

COCCCNC(=O)c1ccc2c3c(onc13)-c1ccccc1C2=O
pKi: 5.45

O=C(NCCCN1CCOCC1)c1sc2cc([N+](=O)[O-])ccc2c1Cl
pKi: 5.67

CCN1/C(=C/C=C/C=C/c2sc3ccccc3[n+]2CC)Sc2ccccc21
pKi: 5.33

Cc1cc(C)c2c(=O)n(CC(=O)Nc3ccc(Cl)cc3)sc2n1
pKi: 5.28

CC(NC(=O)c1sc2cc([N+](=O)[O-])ccc2c1Cl)C(C)(C)C (stereo not drawn)
pKi: 5.79

O=C1OCC2OC(O)C(O)C(O)C2OC(=O)c2cc(O)c(O)c(O)c2-c2c(O)c(O)c3oc(=O)c4c(c(O)c(O)c5oc(=O)c2c3c54)-c2c1cc(O)c(O)c2O (stereo not drawn)
pKi: 6.30

CN=c1scc(C)n1/N=C/c1ccc(O)c(O)c1O
pKi: 5.14

O=C(O)C[C@@H]1C(=O)O[C@@H]2C(COC(=O)c3cc(O)c(O)c(O)c3)O[C@@H](OC(=O)c3cc(O)c(O)c(O)c3)[C@@H](OC(=O)c3cc(O)c(O)c4c3[C@H]1[C@H](O)C(=O)O4)[C@H]2OC(=O)c1cc(O)c(O)c(O)c1 (stereo partly drawn)
pKi: 6.17

CCNc1ccc2noc3c2c1C(=O)c1ccccc1-3
pKi: 4.69

CC1(C)OC(=O)C(=Cc2ccc(-c3ccc(S(N)(=O)=O)cc3)o2)C(=O)O1
pKi: 5.40

COc1ccccc1-n1c(-c2cc(-c3ccco3)[nH]n2)n[nH]c1=S
pKi: 5.16

Cc1ccc(NC(=O)Cn2sc3nc(C)cc(C)c3c2=O)c(Cl)c1
pKi: 4.93

CN(C)[C@@H]1C(=O)C(C(=O)NCN2CCCC2)=C(O)[C@@]2(O)C(=O)C3=C(O)c4c(O)cccc4[C@@](C)(O)C3CC12 (stereo partly drawn)
pEC50: 5.15 | pKi: 5.23

O=C(Cc1csc(N2CCOCC2)n1)N/N=C/c1ccc(O)c(O)c1O
pKi: 4.86

CC(=O)N(O)CCCCCNC(=O)CCC(=O)N(O)CCCCCNC(=O)CCC(=O)N(O)CCCCCN
pKi: 5.72

O=c1c2ccccc2sn1-c1cc(S(=O)(=O)N2CCOCC2)ccc1N1CCCC1
pKi: 5.52

Cc1ccccc1-n1sc2cc(F)ccc2c1=O
pKi: 5.02

COc1ccc(OC)c(CCNC(=O)Cn2sc3nc(C)cc(C)c3c2=O)c1
pKi: 5.41

CCOC(=O)c1sc(NC(=O)CSc2nnc(Cc3ccccc3)o2)c(C#N)c1C
pKi: 5.26

O=C1CCCC2=C1C(c1cccs1)n1ncnc1N2 (stereo not drawn)
EC50: > 30 µM (inactive)

Cc1cccc(N2CCN(C(=O)Cn3sc4nc(C)cc(C)c4c3=O)CC2C)c1 (stereo not drawn)
pKi: 4.89

O=C(OCC1O[C@@H](OC(=O)c2cc(O)c(O)c(O)c2)[C@@H](OC(=O)c2cc(O)c(O)c(O)c2)[C@@H](OC(=O)c2cc(O)c(O)c(O)c2)[C@@H]1OC(=O)c1cc(O)c(O)c(O)c1)c1cc(O)c(O)c(O)c1 (stereo partly drawn)
pKi: 5.98
